Test systems include RXF 393 renal; OVCAR-4 ovarian; T-47D breast; SK-MEL-5 melanoma; SK-MEL-2 melanoma; HOP-92 NSCLC; BT-549 breast; OVCAR-5 ovarian; NCI-H23 lung; HL-60(TB) leukemia.
Common to all, as to assay: inhibition of tumour cell growth, NCI panel, 48 h

Molecules are shown by their SMILES.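 A five-concentration, 48-hour dose response in 96-well plates underlies each endpoint, interpolated linearly between surrounding concentrations. GI50: concentration for 50% inhibition of growth. TGI: concentration producing complete growth inhibition.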

Regarding `OC(CNc1ccnc2cc(Cl)ccc12)CNC1CCCCC1` (centres undefined), the GI50 with RXF 393 renal is 2.5 µM; in the assay on OVCAR-4 ovarian, 3.6 µM; in the assay with T-47D breast, 4.54 µM; in the assay with SK-MEL-5 melanoma, 1.77 µM; with SK-MEL-2 melanoma, 2.28 µM; with HOP-92 NSCLC, 1.42 µM. Besides, the GI50 is 3.69 µM in the assay on BT-549 breast, 12.6 µM in the assay on OVCAR-5 ovarian, 15.9 µM in the assay with NCI-H23 lung and 10.9 µM with HL-60(TB) leukemia. The TGI stood at 8.72 µM in the assay with RXF 393 renal; 23.8 µM in the assay on OVCAR-4 ovarian; 18.7 µM in the assay on T-47D breast; 3.34 µM in the assay with SK-MEL-5 melanoma; 4.86 µM with SK-MEL-2 melanoma; 7.12 µM with HOP-92 NSCLC. The TGI in the assay on BT-549 breast was 16.7 µM; in the assay on OVCAR-5 ovarian, 38.4 µM; in the assay on NCI-H23 lung, 41 µM; in the assay on HL-60(TB) leukemia, 28.7 µM.
As to `C=C1CC[C@@H]2[C@](C)(COC(C)=O)[C@H](OC(C)=O)CC[C@@]2(C)[C@@H]1C/C=C1/C(=O)OC[C@H]1OC(C)=O`, the GI50 was 1.95 µM with RXF 393 renal; 3.57 µM with OVCAR-4 ovarian; 2.86 µM with T-47D breast; 9.5 µM in the assay with SK-MEL-5 melanoma; 10.7 µM in the assay on SK-MEL-2 melanoma; 13.2 µM in the assay on HOP-92 NSCLC. Moreover, the GI50 is 2.29 µM in the assay with BT-549 breast, 1.93 µM in the assay with OVCAR-5 ovarian, 6.22 µM with NCI-H23 lung and 2.61 µM in the assay with HL-60(TB) leukemia. The TGI came to 4.13 µM in the assay on RXF 393 renal; 15.4 µM in the assay on OVCAR-4 ovarian; 13.8 µM in the assay on T-47D breast; 22.4 µM in the assay with SK-MEL-5 melanoma; 26.3 µM with SK-MEL-2 melanoma; 26.4 µM with HOP-92 NSCLC. Also, the TGI was 5.63 µM in the assay with BT-549 breast, 3.92 µM with OVCAR-5 ovarian, 23 µM with NCI-H23 lung and 6.78 µM with HL-60(TB) leukemia.
Turning to `Cc1nn(-c2nc3ccccc3[nH]2)c2c1C(c1ccc3c(c1)OCO3)CC(=O)N2` (centres undefined), the GI50 in the assay on RXF 393 renal was 2.47 µM; in the assay on OVCAR-4 ovarian it was 3.51 µM; with T-47D breast, 3.61 µM; with SK-MEL-5 melanoma, 1.88 µM; in the assay on SK-MEL-2 melanoma, 2.82 µM; with HOP-92 NSCLC it was 2.66 µM. The GI50 with BT-549 breast is 3.26 µM; in the assay on OVCAR-5 ovarian, 5.43 µM; in the assay with NCI-H23 lung, 2.13 µM; in the assay on HL-60(TB) leukemia, 2.84 µM. Moreover, the TGI was 6.26 µM in the assay with RXF 393 renal; more than 87.4 µM with OVCAR-4 ovarian; more than 39.6 µM with T-47D breast; 3.76 µM in the assay with SK-MEL-5 melanoma; 6.96 µM in the assay on SK-MEL-2 melanoma; 7.14 µM with HOP-92 NSCLC. Also, the TGI in the assay with BT-549 breast is 14.2 µM; in the assay on OVCAR-5 ovarian, more than 100 µM; with NCI-H23 lung it was 4.72 µM; with HL-60(TB) leukemia, 7.74 µM.
As to `CN1CCn2c(c(Sc3ccc(C(=O)NO)cc3)c3ccccc32)C1=O`, the GI50 in the assay with RXF 393 renal is 1.62 µM; with OVCAR-4 ovarian, 2.14 µM; in the assay on T-47D breast, 1.53 µM; in the assay on SK-MEL-5 melanoma it was 1.7 µM; in the assay with SK-MEL-2 melanoma, 2.01 µM; in the assay on HOP-92 NSCLC, 1.67 µM. Also, the GI50 in the assay with BT-549 breast is 1.92 µM; with OVCAR-5 ovarian it was 2 µM; with NCI-H23 lung, 1.35 µM; in the assay with HL-60(TB) leukemia, 3.16 µM. Further, the TGI in the assay with RXF 393 renal stood at 3.17 µM; in the assay with OVCAR-4 ovarian it was 9.99 µM; in the assay with T-47D breast it was 3.91 µM; in the assay on SK-MEL-5 melanoma, 3.15 µM; in the assay with SK-MEL-2 melanoma it was 4.1 µM; in the assay on HOP-92 NSCLC, 3.53 µM. Besides, the TGI in the assay with BT-549 breast amounted to 4.3 µM; with OVCAR-5 ovarian it was 5.67 µM; in the assay on NCI-H23 lung it was 4.36 µM; in the assay on HL-60(TB) leukemia it was 32 µM.
For `COc1cc(/C=C/C(=O)c2c(C)n([O-])c3ccc(Cl)cc3[n+]2=O)cc(OC)c1OC`, the GI50 in the assay on RXF 393 renal is 10.2 µM; in the assay on OVCAR-4 ovarian it was more than 100 µM; with T-47D breast, 40.5 µM; in the assay with SK-MEL-5 melanoma, 68 µM; in the assay with SK-MEL-2 melanoma it was more than 100 µM; with HOP-92 NSCLC it was 0.0718 µM. Besides, the GI50 in the assay with BT-549 breast was 18.7 µM; in the assay on OVCAR-5 ovarian, more than 100 µM; in the assay on NCI-H23 lung, 50.5 µM; in the assay with HL-60(TB) leukemia it was more than 100 µM. Moreover, the TGI is 30.2 µM with RXF 393 renal; more than 100 µM in the assay with OVCAR-4 ovarian; more than 100 µM in the assay on T-47D breast; more than 100 µM with SK-MEL-5 melanoma; more than 100 µM in the assay on SK-MEL-2 melanoma; 3.53 µM in the assay on HOP-92 NSCLC. Further, the TGI in the assay on BT-549 breast was 42.5 µM; in the assay with OVCAR-5 ovarian, more than 100 µM; in the assay with NCI-H23 lung it was more than 100 µM; in the assay with HL-60(TB) leukemia it was more than 100 µM.
As for `O=Cc1ccc(O)c2ncccc12`, the GI50 was 10.4 µM in the assay on RXF 393 renal; 2.91 µM in the assay with OVCAR-4 ovarian; 2.56 µM in the assay on T-47D breast; 2.4 µM in the assay on SK-MEL-5 melanoma; 25.8 µM in the assay with SK-MEL-2 melanoma; 5.01 µM with HOP-92 NSCLC. Moreover, the figures for the GI50 in the assay on BT-549 breast, in the assay on OVCAR-5 ovarian and in the assay on NCI-H23 lung were 3.59 µM, 4.65 µM and 3.42 µM, respectively. Also, the TGI was 33.8 µM in the assay with RXF 393 renal; more than 100 µM with OVCAR-4 ovarian; more than 76 µM with T-47D breast; 9.45 µM in the assay on SK-MEL-5 melanoma; more than 96 µM in the assay on SK-MEL-2 melanoma; more than 73.5 µM in the assay with HOP-92 NSCLC. Besides, the TGI with BT-549 breast was more than 71.8 µM; with OVCAR-5 ovarian, 65.5 µM; in the assay on NCI-H23 lung, more than 55.8 µM; in the assay on HL-60(TB) leukemia it was more than 100 µM.
With `O=C(CN1C(=O)c2ccccc2C1=O)C(O)CN1C(=O)c2ccccc2C1=O` (centres undefined), the TGI with RXF 393 renal, in the assay on OVCAR-4 ovarian, with T-47D breast, in the assay on SK-MEL-5 melanoma, in the assay on SK-MEL-2 melanoma and in the assay on HOP-92 NSCLC was more than 100 µM each time. The TGI in the assay with BT-549 breast, in the assay on OVCAR-5 ovarian, in the assay on NCI-H23 lung and in the assay on HL-60(TB) leukemia was more than 100 µM throughout.

(Values after PubChem BioAssay (NCI).)
